For the assay, the system named is Mycobacterium tuberculosis H37Rv strains. The assay can be described thus: In vitro assay for antimicrobial susceptibility (microplate Alamar blue MIC). The assay is classed as cell-based. The conditions noted are these: in vitro, Mycobacterium tuberculosis H37Rv strains; for MIC: Mycobacterium tuberculosis, H37RV, read-out: MIC (μg/mL) against H37Rv. Background: Alamar Blue is a resazurin reagent that responds to reducing activity.

Experimental findings from patent US8716292B2, “Riminophenazines with 2-(heteroaryl)amino substituents and their anti-microbial activity” (priority 2010, dated 2014) are described below.

Values after ≈ are worked out from the molar mass of the structure shown.

For `Cc1ccc(-n2c3c/c(=N\C4CC4)c(Nc4ccc(C)nc4)cc-3nc3ccccc32)cc1` [TBI-340, 5-(4-Methylphenyl)-3-cyclopropylimino-2-(6-methyl-3-pyridyl)amino-3,5-dihydrophenazine], the MIC was found to be 0.149 µg/mL (≈ 0.345 µM). On to `COc1ncccc1Nc1cc2nc3ccccc3n(-c3cccc(OC(F)(F)F)c3)c-2c/c1=N\C1CCCCC1` [TBI-1040, 5-(3-Trifluoromethoxyphenyl)-3-cyclohexylimino-2-(2-methoxy-3-pyridyl)amino-3,5-dihydrophenazine], for which the MIC is 0.086 µg/mL (≈ 0.154 µM). As for `Cc1ccc(Nc2cc3nc4ccccc4n(-c4ccc(F)cc4)c-3c/c2=N\C2CCN(C)CC2)cn1` [TBI-901, 5-(4-Fluorophenyl)-3-(N-methyl-4-piperidyl)imino-2-(6-methyl-3-pyridyl)amino-3,5-dihydrophenazine], the MIC is 0.102 µg/mL (≈ 0.207 µM). Turning to `OC1CCC(/N=c2\cc3n(-c4ccc(Br)cc4)c4ccccc4nc-3cc2Nc2cccnc2)CC1` (centres unmarked) [TBI-094, 5-(4-Bromophenyl)-3-(4-hydroxycyclohexyl)imino-2-(3-pyridyl)amino-3,5-dihydrophenazine], the MIC turned out to be 0.5 µg/mL (≈ 0.925 µM). `COc1ncccc1Nc1cc2nc3ccc(F)cc3n(-c3ccc(Cl)cc3)c-2c/c1=N\C(C)C` [TBI-741, 5-(4-Chlorophenyl)-3-(1-methylethyl)imino-2-(2-methoxy-3-pyridyl)amino-7-fluoro-3,5-dihydrophenazine]: the “MIC (μg/mL) against H37Rv” value was 0.035 µg/mL (≈ 0.0717 µM).

On to `COc1ccc(Nc2cc3nc4ccccc4n(-c4ccc(C(F)(F)F)cc4)c-3c/c2=N\C2CC2)cn1` [TBI-736, 5-(4-Trifluoromethylphenyl)-3-cyclopropylimino-2-(6-methoxy-3-pyridyl)amino-3,5-dihydrophenazine], for which the MIC stood at 0.224 µg/mL (≈ 0.447 µM). On the same count and under the same terms, the same measure for `CC(=O)Nc1ccc(Nc2cc3nc4ccccc4n(-c4ccc(F)cc4)c-3c/c2=N\C2CCN(C)CC2)cn1` [TBI-912, 5-(4-Fluorophenyl)-3-(N-methyl-4-piperidyl)imino-2-(6-acetamino-3-pyridyl)amino-3,5-dihydrophenazine]: 0.351 µg/mL (≈ 0.655 µM); for `COc1ncccc1Nc1cc2nc3ccc(F)cc3n(-c3ccc(Cl)c(Cl)c3)c-2c/c1=N\C1CCOCC1` [TBI-884, 7-Fluoro-5-(3,4-dichlorophenyl)-3-(4-tetrahydropyranyl)imino-2-(2-methoxy-3-pyridyl)amino-3,5-dihydrophenazine]: 0.5 µg/mL (≈ 0.886 µM). As for `CC(C)/N=c1\cc2n(-c3ccc(Cl)c(Cl)c3)c3ccccc3nc-2cc1Nc1cccnc1` [TBI-336, 5-(3,4-Dichlorophenyl)-3-(1-methylethyl)imino-2-(3-pyridyl)amino-3,5-dihydrophenazine], the MIC came out at 0.055 µg/mL (≈ 0.116 µM). Still for that read-out and setting: the value for `COC1CCC(/N=c2\cc3n(-c4ccccc4C(F)(F)F)c4ccccc4nc-3cc2Nc2cccnc2)CC1` (centres unmarked) [TBI-739] was 0.239 µg/mL (≈ 0.44 µM). Regarding `Cc1ncccc1Nc1cc2nc3ccccc3n(-c3cccc(OC(F)(F)F)c3)c-2c/c1=N\C(C)C` [TBI-1032, 5-(3-Trifluoromethoxyphenyl)-3-(1-methylethyl)imino-2-(2-methyl-3-pyridyl)amino-3,5-dihydrophenazine], the MIC stood at 0.107 µg/mL (≈ 0.213 µM). `COc1ncccc1Nc1cc2nc3cc(F)ccc3n(-c3ccc(OC(F)(F)F)cc3)c-2c/c1=N\C1CCCCC1` [TBI-862, 8-Fluoro-5-(4-trifluoromethoxyphenyl)-3-cyclohexylimino-2-(2-methoxy-3-pyridyl)amino-3,5-dihydrophenazine]: the MIC was 0.088 µg/mL (≈ 0.152 µM). The same measure, in the same setting: the same measure for `Cc1ccc(Nc2cc3nc4ccc(F)cc4n(-c4ccc(OC(F)(F)F)cc4)c-3c/c2=N\C(C)C)cn1` [TBI-854, 7-Fluoro-5-(4-trifluoromethoxyphenyl)-3-(1-methylethyl)imino-2-(6-methyl-3-pyridyl)amino-3,5-dihydrophenazine]: 0.067 µg/mL (≈ 0.128 µM); for `COc1ncccc1Nc1cc2nc3cc(C#N)ccc3n(-c3ccc(F)cc3)c-2c/c1=N\C(C)C` [TBI-1064, 8-Cyano-5-(4-fluorophenyl)-3-(1-methylethyl)imino-2-(2-methoxy-3-pyridyl)amino-3,5-dihydrophenazine]: 0.24 µg/mL (≈ 0.502 µM).
